Experiments:
Experiment in all cases: standardised AUC of viability dose-response curve (72 h) (fraction (0-1)); higher = less growth inhibition (more resistant)
[1] = test system: SW684
Summary of the method: (§1)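 After 72 h with 2.5 µl of compound (compound-plate series 10 mM to 0.0002 mM), triplicate wells of sarcoma cell lines in 384-well plates were read with ATPLite, with viability scaled 1 (full) to 0 (none) and fitted with a four-parameter log-logistic model. The values give the standardised area under the dose-response curve in log-dose space from a modified drexplorer computeAUC. A value of 1 means no response and 0 means full response.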

[2] = test system: HS729
Summary of the method: as §1

[3] = test system: MES-SA
Summary of the method: as §1

[4] = test system: SW872
Summary of the method: as §1

[5] = test system: KHOS-NP
Summary of the method: as §1

[6] = test system: SYO-1
Summary of the method: as §1

[7] = test system: RD
Summary of the method: as §1

[8] = test system: SW1353
Summary of the method: as §1

[9] = test system: A204
Summary of the method: as §1

[10] = test system: KHOS-240S
Summary of the method: as §1

[11] = test system: SK-LMS-1
Summary of the method: as §1

[12] = test system: HT1080
Summary of the method: as §1

[13] = test system: SW982
Summary of the method: as §1

[14] = test system: G401
Summary of the method: as §1

[15] = test system: RD-ES
Summary of the method: as §1

[16] = test system: SK-ES-1
Summary of the method: as §1

[17] = test system: VA-ES-BJ
Summary of the method: as §1

| SMILES | standardised AUC [1] | standardised AUC [2] | standardised AUC [3] | standardised AUC [4] | standardised AUC [5] | standardised AUC [6] | standardised AUC [7] | standardised AUC [8] | standardised AUC [9] | standardised AUC [10] | standardised AUC [11] | standardised AUC [12] | standardised AUC [13] | standardised AUC [14] | standardised AUC [15] | standardised AUC [16] | standardised AUC [17] |
| --- | --- | --- | --- | --- | --- | --- | --- | --- | --- | --- | --- | --- | --- | --- | --- | --- | --- |
| CN(C)C/C=C/C(=O)Nc1cc2c(Nc3ccc(F)c(Cl)c3)ncnc2cc1O[C@H]1CCOC1 [AFATINIB] | 0.85 | 0.849 | 0.807 | 0.819 | 0.939 | 0.795 | 0.801 | 0.729 | 0.733 | 0.846 | 0.837 | 0.926 | 0.759 | 0.838 | 0.823 | 0.745 | 0.825 |
| COc1cc2ncnc(Nc3ccc(F)c(Cl)c3)c2cc1OCCCN1CCOCC1 [GEFITINIB] | 0.988 | 0.963 | 0.948 | 0.959 | 0.994 | 0.945 | 0.973 | 0.955 | 0.948 | 0.962 | 0.942 | 0.983 | 0.927 | 0.963 | 0.961 | 0.904 | 0.989 |
| C=CC(=O)N1CCC(CNc2ncnc(N)c2-c2ccc(Oc3ccccc3)cc2)CC1 [EVOBRUTINIB] | 0.998 | 0.929 | 0.98 | 0.987 | 0.995 | 0.975 | 0.996 | 0.947 | 0.943 | 0.981 | 0.981 | 0.984 | 0.994 | 0.979 | 0.989 | 0.945 | 0.992 |
| CO[C@H]1C[C@@H]2CC[C@@H](C)[C@@](O)(O2)C(=O)C(=O)N2CCCC[C@H]2C(=O)O[C@H]([C@H](C)C[C@@H]2CC[C@@H](OC(=O)C(C)(CO)CO)[C@H](OC)C2)CC(=O)[C@H](C)/C=C(\C)[C@@H](O)[C@@H](OC)C(=O)[C@H](C)C[C@H](C)/C=C/C=C/C=C/1C [TEMSIROLIMUS] | 0.933 | 0.887 | 0.511 | 0.741 | 0.934 | 0.81 | 0.731 | 0.883 | 0.592 | 0.854 | 0.64 | 0.94 | 0.743 | 0.763 | 0.754 | 0.647 | 0.588 |
| C[C@@H]1CN(C(=O)c2ccc(NC(=O)c3cc(O[C@H](C)c4c(Cl)ccc(F)c4Cl)c(N)nn3)cc2)C[C@H](C)N1 [ENSARTINIB] | 0.936 | 0.878 | 0.832 | 0.891 | 0.975 | 0.816 | 0.852 | 0.933 | 0.937 | 0.895 | 0.845 | 0.929 | 0.808 | 0.875 | 0.805 | 0.79 | 0.853 |
| Cc1cc2c(F)c(Oc3ncnn4cc(OC[C@@H](C)OC(=O)[C@H](C)N)c(C)c34)ccc2[nH]1 [BRIVANIB ALANINATE] | 0.989 | 0.977 | 0.964 | 1 | 0.966 | 0.943 | 0.987 | 0.995 | 0.967 | 0.974 | 0.941 | 0.979 | 1 | 0.991 | 0.996 | 0.986 | 0.994 |
| COC(=O)c1ccc2c(c1)NC(=O)/C2=C(\Nc1ccc(N(C)C(=O)CN2CCN(C)CC2)cc1)c1ccccc1 [NINTEDANIB] | 0.953 | 0.88 | 0.967 | 0.978 | 0.961 | 0.672 | 0.93 | 0.966 | 0.624 | 0.858 | 0.943 | 0.96 | 0.941 | 0.859 | 0.896 | 0.832 | 0.982 |
| CCS(=O)(=O)N1CC(CC#N)(n2cc(-c3ncnc4[nH]ccc34)cn2)C1 [BARICITINIB] | 0.99 | 0.977 | 0.972 | 0.992 | 0.986 | 0.985 | 1 | 0.987 | 0.962 | 0.981 | 0.985 | 0.989 | 0.99 | 0.995 | 1 | 1 | 0.997 |
| CNC(=O)c1cccc2cc(Oc3ccnc4cc(OCC5(N)CC5)c(OC)cc34)ccc12 [LUCITANIB] | 0.973 | 0.85 | 0.908 | 0.985 | 0.994 | 0.74 | 0.985 | 0.893 | 0.585 | 0.901 | 0.94 | 1 | 0.975 | 0.853 | 0.964 | 0.95 | 0.994 |
| CNC(=O)c1c(C)oc2cc(Oc3ncnc4cc(OC)c(OC)cc34)ccc12 [FRUQUINTINIB] | 0.979 | 0.856 | 0.97 | 0.925 | 0.975 | 0.79 | 0.993 | 0.932 | 0.787 | 0.937 | 0.96 | 0.968 | 0.986 | 0.934 | 0.984 | 0.968 | 0.964 |
| Cc1cc(F)c(C(=O)Nc2cccc(-c3nncn3C(C)C)n2)cc1-n1cnc(C2CC2)c1 [SELONSERTIB] | 0.981 | 0.992 | 0.959 | 1 | 0.962 | 0.957 | 0.995 | 0.999 | 0.94 | 0.977 | 0.988 | 1 | 1 | 0.969 | 0.985 | 0.953 | 0.976 |
| O=C(/C=C\n1cnc(-c2cc(C(F)(F)F)cc(C(F)(F)F)c2)n1)NNc1cnccn1 [SELINEXOR] | 0.847 | 0.773 | 0.652 | 0.781 | 0.655 | 0.596 | 0.721 | 0.822 | 0.672 | 0.612 | 0.642 | 0.714 | 0.649 | 0.706 | 0.751 | 0.5 | 0.625 |
| Cc1[nH]c(/C=C2\C(=O)Nc3ccccc32)c(C)c1CCC(=O)O [ORANTINIB] | 0.966 | 0.934 | 0.958 | 0.975 | 0.99 | 0.976 | 0.994 | 0.964 | 0.963 | 0.993 | 0.976 | 0.971 | 0.966 | 0.977 | 0.985 | 0.977 | 0.967 |
| C#Cc1cccc(Nc2ncnc3cc4c(cc23)OCCOCCOCCO4)c1 [ICOTINIB] | 0.986 | 0.918 | 0.976 | 0.958 | 0.996 | 0.966 | 1 | 0.947 | 0.958 | 0.99 | 0.982 | 0.988 | 0.989 | 0.995 | 0.985 | 0.986 | 0.975 |
| CCN1CCN(c2ccc(Nc3cc(N(C)C(=O)Nc4c(Cl)c(OC)cc(OC)c4Cl)ncn3)cc2)CC1 [INFIGRATINIB] | 0.996 | 0.737 | 0.774 | 0.95 | 0.983 | 0.736 | 0.986 | 0.855 | 0.701 | 0.896 | 0.965 | 0.995 | 0.933 | 0.719 | 0.926 | 0.838 | 0.943 |
| O=S(=O)(c1cccc2c(O)nccc12)N1CCCNCC1 [HYDROXYFASUDIL] | 0.95 | 0.917 | 0.967 | 0.961 | 0.981 | 0.958 | 1 | 0.965 | 0.98 | 0.975 | 0.979 | 0.999 | 0.992 | 0.99 | 1 | 0.976 | 0.968 |
| Cc1c2oc3c(C)ccc(C(=O)N[C@@H]4C(=O)N[C@H](C(C)C)C(=O)N5CCC[C@H]5C(=O)N(C)CC(=O)N(C)[C@@H](C(C)C)C(=O)O[C@@H]4C)c3nc-2c(C(=O)N[C@@H]2C(=O)N[C@H](C(C)C)C(=O)N3CCC[C@H]3C(=O)N(C)CC(=O)N(C)[C@@H](C(C)C)C(=O)O[C@@H]2C)c(N)c1=O [DACTINOMYCIN] | 0.778 | 0.504 | 0.258 | 0.56 | 0.451 | 0.444 | 0.432 | 0.492 | 0.365 | 0.408 | 0.566 | 0.464 | 0.396 | 0.348 | 0.418 | 0.272 | 0.453 |
| CCOc1cc2ncc(C#N)c(Nc3ccc(OCc4ccccn4)c(Cl)c3)c2cc1NC(=O)/C=C/CN(C)C [NERATINIB] | 0.901 | 0.872 | 0.745 | 0.817 | 0.889 | 0.818 | 0.775 | 0.753 | 0.755 | 0.873 | 0.847 | 0.877 | 0.717 | 0.851 | 0.822 | 0.693 | 0.83 |
| O=C(c1ccc(F)c(F)c1Nc1ccc(I)cc1F)N1CC(O)([C@@H]2CCCCN2)C1 [COBIMETINIB] | 0.748 | 0.899 | 0.909 | 0.633 | 0.657 | 0.878 | 0.653 | 0.844 | 0.801 | 0.786 | 0.628 | 0.661 | 0.867 | 0.732 | 0.953 | 0.931 | 0.756 |
| COc1cc(N2CCC(N3CCN(C)CC3)CC2)ccc1Nc1ncc(Cl)c(Nc2ccccc2P(C)(C)=O)n1 [BRIGATINIB] | 0.904 | 0.728 | 0.908 | 0.778 | 0.889 | 0.681 | 0.694 | 0.77 | 0.833 | 0.766 | 0.883 | 0.907 | 0.649 | 0.816 | 0.7 | 0.713 | 0.763 |
| CS(=O)(=O)CCNCc1ccc(-c2ccc3ncnc(Nc4ccc(OCc5cccc(F)c5)c(Cl)c4)c3c2)o1 [LAPATINIB] | 0.989 | 0.952 | 0.924 | 0.936 | 0.99 | 0.924 | 0.938 | 0.941 | 0.915 | 0.927 | 0.938 | 0.99 | 0.94 | 0.991 | 0.995 | 0.928 | 0.966 |
| Cn1cnc2c(F)c(Nc3ccc(Br)cc3Cl)c(C(=O)NOCCO)cc21 [SELUMETINIB] | 0.931 | 0.955 | 0.919 | 0.79 | 0.782 | 0.902 | 0.784 | 0.861 | 0.953 | 0.89 | 0.748 | 0.816 | 0.926 | 0.904 | 0.986 | 0.977 | 0.887 |
| CN(C)C(=O)c1cc2cnc(Nc3ccc(N4CCNCC4)cn3)nc2n1C1CCCC1 [RIBOCICLIB] | 0.984 | 0.987 | 0.94 | 0.95 | 0.997 | 0.86 | 0.946 | 0.939 | 0.909 | 0.961 | 0.963 | 0.993 | 0.952 | 0.917 | 0.865 | 0.816 | 0.903 |

Source: the supplement of paper PMC10883282
